The values below come from publication PMC6956045 (Pharmaceutics, 2019).

Each structure is given as a SMILES string. Converted amounts (≈) assume the structure as drawn.

The nature of data set [1]: Bulk phase partition coefficient n-octanol/phosphate buffer. Type of data set: physicochemical. The conditions noted are these: pH 6.8, read-out: n-Octanol partition coefficient P (converted). As for the experimental part:
The partition coefficient was calculated as the ratio between octanol concentration and the aqueous concentration. Three replicates were done to determine the average value.
Partition coefficients can be used as an index to provisionally classify compounds in terms of permeability.

The conditions of data set [2]: cited from earlier work.
In data set [3] the test system is Caco-2 cell monolayers. Nature of the data set: Permeability assay: Caco-2 transport studies. The data set is classed as in vitro ADME. As for the experimental part:
Caco-2 cells were grown in a polycarbonate membrane. To reach the confluence, 250,000 cells/cm^2 were seeded in six Transwell plates and […] for 19–22 days with Dubelcco’s Modified Eagle’s Media, with 1% L-glutamine, 10% fetal bovine serum, and 1% penicillin/streptomycin, at 37 °C temperature, 90% relative humidity, and 5% CO2.
The confluence of the cells was tested by measuring the transepithelial electrical resistance (TEER). Permeability studies were conducted with an orbital shaking (50 rpm) and with pH 7.0 in both chambers. Standard protocols were described and validated previously in our laboratory. Four samples of 200 µL were taken and replaced with a fresh buffer from the receiver side at 15, 30, 45, and 90 min.
Permeability studies were performed in both directions: apical-to-basal (A-to-B) and basal-to-apical (B-to-A).
The apparent permeability coefficient was calculated according the following equation:(1) Creceiver,t=Qtotal/Vreceiver+Vdonor+((Creceiver,t−1·f)−Qtotal/Vreceiver+Vdonor)·e^−Peff 0,1·S·(1/Vreceiver+1/Vdonor)·Δt where Creceiver,t is the drug concentration in the receiver chamber at time t, Qtotal is the total amount of drug in both chambers, Vreceiver and Vdonor are the volumes of each chamber, Creceiver,t−1 is the drug concentration in the receiver chamber at the previous time, f is the sample replacement dilution factor, S is the surface area of the monolayer, Δt is the time interval, and Peff is the permeability coefficient as was described by Mangas-Sanjuan et al..
Experiments in the presence of the formulation excipients were done by dissolving a formulation tablet in 250 mL of buffer and filtrating the obtained dispersion to eliminate nonsoluble excipients.
In general terms: Passage across Caco-2 layers is used to estimate intestinal permeability.

The conditions of data set [4]: cited from earlier work. This is another data set of the same source.
A short description of data set [5]: Solubility assay: saturation shake-flask method. The note with it: for solubility at 8 h: thermodynamic from solid, 37 °C, shake-flask. The data set is classed as physicochemical. On the procedure: The solubility assays were performed according to the World Health Organization (WHO) guidelines protocols. […] A sample concentration was determined using high-performance liquid chromatography (HPLC) with ultraviolet (UV) detection.

In the case of `COCCc1ccc(OCC(O)CNC(C)C)cc1` (stereo not shown) [Metoprolol], the logD in data set [1] is -0.638.

Turning to `CC[C@H](C)C(=O)O[C@H]1C[C@H](O)C=C2C=C[C@H](C)[C@H](CC[C@@H](O)C[C@@H](O)CC(=O)O)[C@H]21` [Pravastatin sodium], in data set [2], the “Solubility in chloroform” value is reported as “practically insoluble”; the “Solubility in water, methanol and acetonitrile” value is listed as “easily soluble”.

One may read the solubility as the dissolved amount per volume that the medium holds. A higher solubility goes with a readily soluble substance. One may read the log P as a log measure of how a compound divides between an organic and an aqueous phase. A word on the pKa: it is the pH at which an ionisable group is half protonated. On to `CC[C@H](C)C(=O)O[C@H]1C[C@H](O)C=C2C=C[C@H](C)[C@H](CC[C@@H](O)C[C@@H](O)CC(=O)O)[C@H]21` [Pravastatin], for which the “Concentration dependence of permeability” value in data set [3] (Caco-2, 50-1000 μM) is on record as “permeability increased at higher concentrations”. The “Permeability compared with metoprolol” value in data set [3] (Caco-2, pH 7.0 both chambers, drug in solution) is recorded as “lower than that of metoprolol”. The “Permeability in the presence of sodium azide” value in data set [3] (Caco-2, passive diffusion permeability, transporter contribution nullified) is on record as “as high as metoprolol permeability”. Besides, in data set [4], the “First-pass hepatic effect (of the absorbed drug)” value is given as 66% and the “Intestinal absorption (of dose administered)” value is 34%. For the same compound, the Solubility classification result in data set [5] was “highly soluble”. Besides, the solubility at 8 h in data set [5] (buffer solution pH 1.2, aqueous buffer, pH 1.2 buffer) is 440 ± 17.4 mg/mL (≈ 1040 mM). In addition, the concentration in solution in data set [5] (buffer solution pH 4.5, aqueous buffer, pH 4.5 buffer) (solubility at 8 h) was 504 ± 24.2 mg/mL (≈ 1190 mM). Besides, the solubility at 8 h in data set [5] (buffer solution pH 6.8, aqueous buffer, pH 6.8 buffer) came out at 480 ± 17.4 mg/mL (≈ 1130 mM). In data set [5] (pH 1.2), the “Volume in which the highest strength/dose (40 mg) would be soluble” value amounted to 0.09 mL. In data set [2], the “log P” value was 1.65 and the pKa was 4.21. For the same compound, the logD in data set [1] was -0.155.
